The values that follow come from article PMC4626089, “In Vitro Mutational Analysis of the β2 Adrenergic Receptor, an In Vivo Surrogate Odorant Receptor” (PLoS ONE, 2015).

Assay [1] addresses mβ2AR::GFP fusion ΔCt➔L339 (Mus musculus, UniProt P18762). Description: cell-based. The conditions noted are these: read-out: Maximum response (% of mβ2AR::GFP). As for the experimental part: (§1) Calcium-based Fluorometric Imaging Plate Reader (FLIPR) experiments were performed as described previously. Mutants analyzed in each figure come from the same FLIPR experiment. […] Relative Fluorescent Units were baseline corrected by subtracting the lowest fluorescent measure for each experiment and a curve was fitted using a 3 parameters model (Hill Slope = 1) using the GraphPad software. Half maximal effective concentrations (EC50) were then calculated and are given in nM. The maximum response, as a percent of wild type, was calculated by reporting the span for a mutant over the span for the wild type.

A further assay deals with mβ2AR::GFP fusion Y326A (Mus musculus, UniProt P18762, Y326A). Nature of the assay: cell-based. The conditions noted are these: read-out: Maximum response (% of mβ2AR::GFP). As for the experimental part: as §1
The target in assay [2] is mβ2AR::GFP fusion ΔCt➔Y350 (Mus musculus, UniProt P18762). Description: cell-based. The conditions noted are these: read-out: Maximum response (% of mβ2AR::GFP). How it is done:
as §1

Assay [3] addresses mβ2AR::GFP fusion ΔCt➔E338 (Mus musculus, UniProt P18762). Description: cell-based. The conditions noted are these: read-out: Maximum response (% of mβ2AR::GFP). As for the experimental part:
as §1

Assay [4] deals with mβ2AR::GFP fusion mouse RDY (Mus musculus, UniProt P18762, D130R/R131D). Nature of the assay: cell-based. The settings on record: Fig 4K. As for the experimental part: as §1
Assay [5] deals with mβ2AR::GFP fusion mouse C327R (Mus musculus, UniProt P18762, C327R). Description: cell-based. The conditions noted are these: read-out: Maximum response (% of mβ2AR::GFP). As for the experimental part:
as §1

For assay [6], the target named is mβ2AR::GFP fusion no-NxS (N6A and N15A) (Mus musculus, UniProt P18762, N15A/N6A). Nature of the assay: cell-based. The conditions noted are these: read-out: Maximum response (% of mβ2AR::GFP). How it is done: as §1
Assay [7] concerns the target mβ2AR::GFP fusion mouse E268A (Mus musculus, UniProt P18762, E268A). Nature of the assay: cell-based. The conditions noted are these: read-out: Maximum response (% of mβ2AR::GFP), span of mutant over span of wild type; Fig 4K. As for the experimental part:
as §1

In assay [8] the test system is mβ2AR::GFP fusion M71-Nt/Y326A/ΔCt➔R328. The conditions noted are these: FLIPR dose response; Fig 6E and 6F, comparable to mock. As for the experimental part:
as §1

For assay [9], the target named is mβ2AR::GFP fusion ΔCt➔Q337 (Mus musculus, UniProt P18762). The settings on record: FLIPR dose response; Fig 5E. How it is done: as §1
Assay [10] addresses mβ2AR::GFP fusion Y326A/ΔCt➔R328 (Mus musculus, UniProt P18762, Y326A). The conditions noted are these: FLIPR dose response; Fig 6E, comparable to no plasmid-mock transfection. How it is done:
as §1

Assay [11] addresses mβ2AR::GFP fusion M71-Nt/mβ2AR/M71-Ct (Mus musculus, UniProt P18762). The conditions noted are these: span of mutant over span of wild type; Fig 7. How it is done:
as §1

The test system of assay [12] is mβ2AR::GFP fusion NtΔ9AA/Y326A/ΔCt➔R328. The settings on record: FLIPR dose response; Fig 6E and 6F, comparable to mock. As for the experimental part: as §1
Assay [13] has as its target mβ2AR::GFP fusion mβ2AR/M71-Ct (Mus musculus, UniProt P18762). The conditions noted are these: span of mutant over span of wild type; Fig 7. As for the experimental part:
as §1

In assay [14] the target is mβ2AR::GFP fusion ΔCt➔A335 (Mus musculus, UniProt P18762). The conditions noted are these: FLIPR dose response; Fig 5E. How it is done:
as §1

Assay [15] deals with mβ2AR::GFP fusion NtΔ9AA/ΔCt➔Y350/ΔC341 (Mus musculus, UniProt P18762, DEL341, form not given). The conditions noted are these: span of mutant over span of wild type; Fig 3. How it is done: as §1
In assay [16] the target is mβ2AR::GFP fusion no-NxS/Y326A/ΔCt➔R328 (Mus musculus, UniProt P18762, N15A/N6A/Y326A). The settings on record: FLIPR dose response; Fig 6E and 6F, comparable to mock. As for the experimental part: as §1
Assay [17] concerns the target mβ2AR::GFP fusion NtΔ9AA/mβ2AR/M71-Ct (Mus musculus, UniProt P18762). The conditions noted are these: span of mutant over span of wild type; Fig 7. As for the experimental part:
as §1

Assay [18] concerns rat I7 (rI7) OR, rI7(RDY). Details: method as in PMID 16990513, PMID 25550517. The settings on record: neurons expressing rI7(RDY); cited from earlier work.

Each structure is given as a SMILES string.

Consider `CC(C)NCC(O)c1ccc(O)c(O)c1` (centres unmarked) [Isoprenaline, isoprenaline], for which the Emax was found to be 27% in assay [1]; 89% on mβ2AR::GFP fusion Y326A; 70% in assay [2]; 19% in assay [3]; 58% in [4] (read-out: Maximum response (% of mβ2AR::GFP), span of mutant over span of wild type); 58% in assay [5]. Also, the Emax was 120% in assay [6] and 51% in assay [7]. The “Maximum response (% of mβ2AR::GFP)” value in [4] (span of mutant over span of wild type) is ~ 60%; in [11], 32%; in assay [13], 47%; in [15], 77%; in assay [17] it was 34%. Besides, the induction by isoprenaline result in assay [8], in [12] and in assay [16] was “not induced” each time. For the same compound, the isoprenaline-mediated responses result in [9] and in assay [14] was “do not find isoprenaline-mediated responses” each time. The “capacity to signal after isoprenaline exposure” value in assay [10] is “no capacity to signal”.

For `CCCCCCCC=O` [octanal], the “Ca2+ signals in response to octanal” value in assay [18] is on record as “do not show Ca^2+ signals”.
